Laboratory results from US12144864B2, “Tubulysins and protein-tubulysin conjugates” (Regeneron Pharmaceuticals, Inc., priority 2018, dated 2024).
pIC50: −log10 of the molar value. Like-named read-outs stand apart in the source and are kept apart here.

Experiments:
C4-2 cells = assay: Cell-based killing assay of payloads (CellTiter-Glo), C4-2 cells; design: species or system human; details: 5-day incubation; for pIC50: Homo sapiens, C4-2, 120 h, average ± SD where replicates; for C4-2 % Kill: at maximum concentration tested (100 − % viable cells)
Procedure, shortened: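 Viability readout is CellTiter-Glo luminescence after a 5-day exposure to 10-point, threefold-diluted payloads spanning 100 nM–[…], following overnight attachment of 4000 cells/well. Four-parameter logistic fit gives IC50 in M; % kill taken at highest concentration tested.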

T47D cells = assay: Cell-based killing assay of payloads (CellTiter-Glo), T47D cells; design: species or system human; details: 5-day incubation; for pIC50: Homo sapiens, T47D, 120 h; for T47D % Kill: at maximum concentration tested
Method: (§1) To test the ability of the disclosed tubulysin payloads to kill human cell lines, an in vitro cytotoxicity assay was performed. In vitro cytotoxicity of the disclosed payloads, as well as reference compounds, were evaluated using the CellTiter-Glo Assay Kit (Promega, Cat #G7573), in which the quantity of ATP present is used to determine the number of viable cells in culture. For the assay, C4-2, HEK293, or T47D cells were seeded at 4000 cells/well on Nunclon white 96-well plates in complete growth medium (DME high glucose:Ham's F12 at 4:1, 10% FBS, 100 units/ml Penicillin, 100 ug/ml streptomycin, 53 ug/ml glutatmine, 10 ug/ml insulin, 220 ng/ml biotin, 12.5 pg/ml T3, 12.5 ug/ml Adenine, 4 ug/ml transferrin for C42 cells; DME high glucose, 10% FBS, 100 units/ml Penicillin, 100 ug/ml streptomycin, 53 ug/ml glutatmine for HEK293; RPMI, 10% FBS, 100 units/ml Penicillin, 100 ug/ml streptomycin, 53 ug/ml glutatmine, 10 ug/ml insulin, 10 mM HEPEs, 200 nM Sodium Pyruvate for T47D cells) and grown overnight at 37° C. in 5% CO2. For cell viability curves, 1:3 serially diluted payloads were added to the cells at final concentrations ranging from 100 nM to […], including a no treatment control group, and were then incubated for 5 days. After the 5-day incubation, cells were incubated at room temperature with 100 μL of CellTiter-Glo reagents for 10 minutes. Relative luminescence units (RLU) were determined on a Victor plate reader (PerkinElmer). The IC50 values were determined from a four-parameter logistic equation over a 10-point response curve (GraphPad Prism). All IC50 values are expressed in molar (M) concentration. The percent cell killing (% kill) at the maximum concentration tested was estimated from the following formula (100−% viable cells). Averages±standard deviation (SD) are included where replicate experiments were performed.

HEK293 cells = assay: Cell-based killing assay of payloads (CellTiter-Glo), HEK293 cells; design: species or system human; details: 5-day incubation; for pIC50: Homo sapiens, HEK293, 120 h; for HEK293 % Kill: at maximum concentration tested
Method: as §1

HCT15 cells = assay: cells; type: cell-based, human; details: HCT15 cells; for HCT-15 + verapamil % Kill / HCT-15 % Kill: maximum % cell killing
Procedure, shortened: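 Five-day exposure of 1000 HCT15 cells/well to threefold payload dilutions, run both plus and minus verapamil (5 ug/mL) in RPMI with 10% FBS. ATP luminescence (CellTiter-Glo) gives viability; four-parameter logistic fit of 10 points yields IC50, and 100 − % viable at highest dose gives % kill.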

HL60/MX2 cells = assay: Cytotoxicity in panel of MDR cell lines, HL60/MX2 (72 h and 144 h); type: cell-based, human; details: for pIC50: Homo sapiens
Procedure, shortened: (§2)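 MDR lines (HCT-15; doxorubicin-resistant H69AR; mitoxantrone-resistant MES-SA/MX2 and HL60/MX2) seeded at 1000 cells/well in normal growth media, treated with 1:3 serially diluted payloads for 72 h and 144 h. Viability by CellTiter-Glo ATP luminescence; IC50 from four-parameter logistic fit of 10-point curves.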

MES-SA/MX2 cells = assay: Cytotoxicity in panel of MDR cell lines, MES-SA/MX2 (72 h and 144 h); type: cell-based, human; details: for pIC50: Homo sapiens
Procedure, shortened: as §2

HCT-15 cells = assay: Cytotoxicity in panel of MDR cell lines, HCT-15 (72 h and 144 h); type: cell-based, human; details: for pIC50: Homo sapiens
Procedure, shortened: as §2

H69AR cells = assay: Cytotoxicity in panel of MDR cell lines, H69AR (72 h and 144 h); type: cell-based, human; details: for pIC50: Homo sapiens
Procedure, shortened: as §2

[1] = with 5 ug/mL Verapamil, read-out: HCT-15 + verapamil IC50
[2] = Homo sapiens, HCT-15, without Verapamil, read-out: HCT-15 IC50
[3] = 72 h incubation, read-out: HL60/MX2 IC50 72 h
[4] = 144 h incubation, read-out: HL60/MX2 IC50 144 h
[5] = 72 h incubation, read-out: MES-SA/MX2 IC50 72 h
[6] = 144 h incubation, read-out: MES-SA/MX2 IC50 144 h
[7] = 72 h incubation, read-out: HCT-15 IC50 72 h
[8] = 144 h incubation, read-out: HCT-15 IC50 144 h
[9] = 72 h incubation, read-out: H69AR IC50 72 h
[10] = 144 h incubation, read-out: H69AR IC50 144 h

Structure (SMILES) | pIC50 (C4-2 cells) | C4-2 % Kill (C4-2 cells) [%] | pIC50 (T47D cells) | T47D % Kill (T47D cells) [%] | pIC50 (HEK293 cells) | HEK293 % Kill (HEK293 cells) [%] | HCT-15 + verapamil % Kill (HCT15 cells; with 5 ug/mL Verapamil) [%] | pIC50 (HCT15 cells; [1]) | HCT-15 % Kill (HCT15 cells; without Verapamil) [%] | pIC50 (HCT15 cells; [2]) | HL60/MX2 % Kill 72 h (HL60/MX2 cells; 72 h incubation) [%] | HL60/MX2 % Kill 144 h (HL60/MX2 cells; 144 h incubation) [%] | pIC50 (HL60/MX2 cells; [3]) | pIC50 (HL60/MX2 cells; [4]) | MES-SA/MX2 % Kill 72 h (MES-SA/MX2 cells; 72 h incubation) [%] | MES-SA/MX2 % Kill 144 h (MES-SA/MX2 cells; 144 h incubation) [%] | pIC50 (MES-SA/MX2 cells; [5]) | pIC50 (MES-SA/MX2 cells; [6]) | HCT-15 % Kill 72 h (HCT-15 cells; 72 h incubation) [%] | HCT-15 % Kill 144 h (HCT-15 cells; 144 h incubation) [%] | other results
C#CCCCON(C(=O)[C@@H](NC(=O)[C@H]1CCCCN1C)[C@@H](C)CC)[C@H](C[C@@H](OC(C)=O)c1nc(C(=O)N[C@@H](Cc2ccc(N)cc2)C[C@H](C)C(=O)O)cs1)C(C)C [Vh, (2S,4R)-4-({2-[(1R,3R)-1-(Acetyloxy)-4-methyl-3-[(2S,3S)-3-methyl-2-{[(2R)-1-methylpiperidin-2-yl]formamido}-N-(pent-4-yn-1-yloxy)pentanamido]pentyl]-1,3-thiazol-4-yl}formamido)-5-(4-aminophenyl)-2-methylpentanoic acid] | 9.29 | 92 | 9.34 | 64.5 | 9.14 | 85.6 | 98.1 | 9.23 | 97.7 | 8.83 | 97.5 | 99.9 | 9.76 | > 10.82 | 98.4 | 99.8 | 8.53 | 8.09 | 97 | 99.6 | pIC50 (HCT-15 cells; [7]): 9.06; pIC50 (HCT-15 cells; [8]): 8.90; H69AR % Kill 72 h (H69AR cells; 72 h incubation): 93.7%; H69AR % Kill 144 h (H69AR cells; 144 h incubation): 98.4%; pIC50 (H69AR cells; [9]): 8.59; pIC50 (H69AR cells; [10]): 8.38
C#CCCCCN(C(=O)[C@@H](NC(=O)[C@H]1CCCCN1C)[C@@H](C)CC)[C@H](C[C@@H](OC(C)=O)c1nc(C(=O)N[C@@H](Cc2ccc(N)cc2)C[C@H](C)C(=O)O)cs1)C(C)C [IVg, (2S,4R)-4-({2-[(1R,3R)-1-(Acetyloxy)-3-[(2S,3S)—N-(hex-5-yn-1-yl)-3-methyl-2-{[(2R)-1-methylpiperidin-2-yl]formamido}pentanamido]-4-methylpentyl]-1,3-thiazol-4-yl}formamido)-5-(4-aminophenyl)-2-methylpentanoic acid] | 9.87 | 91.7 | 9.38 | 62.9 | 9.27 | 86.5 | 97.5 | 9.48 | 97.1 | 9.34 | 98.5 | 100 | 9.91 | > 10.82 | 99.6 | 100 | 9.08 | 9.00 | 97.6 | 99.5 | pIC50 (HCT-15 cells; [7]): 9.77; pIC50 (HCT-15 cells; [8]): 9.65; H69AR % Kill 72 h (H69AR cells; 72 h incubation): 95.7%; H69AR % Kill 144 h (H69AR cells; 144 h incubation): 99.2%; pIC50 (H69AR cells; [9]): 9.26; pIC50 (H69AR cells; [10]): 9.24
